Consider 108 molecules from a melting point compilation (Tetko et al.).

Peptide text beside a SMILES is read from it.

Consider `O=C(c1ccccc1)c1cnc2ccccn2c1=O`, for which the melting point – broadly, the temperature of the solid-liquid transition – lay in the range of 152 to 153 °C.

In turn, `Nc1nc(SCc2ccc([N+](=O)[O-])cc2)c2ncn(C3OC(CO)C(O)C3O)c2n1` (stereo not drawn) gave a melting point of 203 to 205 °C.

`N#Cc1ccc(F)cc1Br`: the melting point stood at 76 °C.

`Cc1cc(C#N)ccc1[N+](=O)[O-]` had a melting point of 81 °C.

For `C=CCSC(=O)n1c(N)c(-c2ccccc2C)c(=O)n1C(C)C`, the melting point is 116 °C.

For the molecule `NC(=S)NCCCN1CCOCC1`, the melting point lay within 129 to 131 °C.

Turning to `Cc1ccn(-c2ccccc2)n1`, the melting point was determined as 37 °C.

The molecule `CCOP(=S)(NC(C)C)Oc1ccccc1C(=O)OC(C)C` (stereo not drawn) registered a melting point of -12 °C.

For `O=C(O)Cc1ccc(Oc2ccccc2)cc1`, the melting point lay within 79 to 81 °C.

`CCOC(=O)CCC(C)C1CCC2C3C(O)C(Br)C4CC(OC(C)=O)CCC4(C)C3CC(OC(C)=O)C12C` (stereo not drawn) registered a melting point of 164 to 167 °C.

Take `COc1ccc(C(N)=O)cc1N`: the melting point stood at 158 °C.

Molecule `O=C(O)Cc1cccc(Oc2ccccc2)c1` showed a melting point of 89 °C.

The molecule `CCOC(=O)C#Cc1cccc(C#CC(=O)OCC)c1` had a melting point of 56 °C.

`O=C(C1=NOC2C(=O)N(c3cccc([N+](=O)[O-])c3)C(=O)C12)c1ccccc1` (stereo not drawn) displayed a melting point of 173 °C.

Molecule `NC(=S)Nc1ccc(F)cc1F` displayed a melting point of 163 to 168 °C.

Consider `NNC(=O)C1CC1C(=O)NN` (stereo not drawn), for which the melting point was in the range of 187 to 191 °C.

As to `O=C1CCCCCCCC1`, the melting point was 34 °C.

Consider `Cc1cccc(NC(=O)C(C(F)(F)F)C(F)(F)F)n1`, for which the melting point worked out at 107 °C.

On to `COC(=O)c1sc2ccccc2c1Cl`, for which the melting point was determined as 81 °C.

`Nc1ccc(-c2ccc(NNc3ccccc3)cc2)cc1` had a melting point of 140 °C.

Molecule `Oc1ccc(Cl)c2ccccc12` gave a melting point of 117 to 120 °C.

Molecule `CCOC(=O)C(SP(=S)(OC)OC)c1ccccc1` (stereo not drawn) displayed a melting point of 17.5 °C.

In turn, `CCCc1ccccc1O` returned a melting point of 7 °C.

In the case of `O=C1NC2C=CC1C2` (single isomer, unassigned; (-)), the melting point fell in the range of 92 to 100 °C.

With `CCCCCCCCCCCCOc1ccc(C(C)=O)cc1`, the melting point lay within 44 to 47 °C.

In the case of `CC(C)[C@H](NC(=O)CN)C(=O)O` (H-Gly-Val-OH), the melting point worked out at 248 °C.

Molecule `Ic1cccc2cccc(I)c12` gave a melting point of 106 °C.

`CCOC(=O)C1=C(N)Oc2ccc(Br)cc2C1C(C#N)C(=O)OCC` (stereo not drawn) registered a melting point of 105 to 108 °C.

`CC(C)(C)OC(=O)N[C@H](CO)Cc1ccccc1`: the melting point was found to be 97 °C.

In turn, `CCCCOc1ccc(-c2nnc3n2NC(c2ccc(O)c(OC)c2)S3)cc1` (stereo not drawn) returned a melting point of 144 °C.

For `CC1CCC(C)(C(=O)CN(C)C(=S)Nc2ccccc2)C1(C)C` (stereo not drawn), the melting point turned out to be 147 °C.

Molecule `O=C(O)c1cccc(-n2cccc2)c1` registered a melting point of 180 to 181 °C.

As to `Cc1ccccc1NC(=S)/C(=N\NC(=N)N)c1ccccc1`, the melting point lay in the range of 206 to 207 °C.

As to `COc1ccccc1C(=S)N1CCCCC1`, the melting point was determined as 85 °C.

`Ic1ccc(OC2CCOCC2)cc1` displayed a melting point of 88.5 to 89.5 °C.

Turning to `c1ccc(C(c2ccccc2)=P(c2ccccc2)(c2ccccc2)c2ccccc2)cc1`, the melting point lay within 169 to 171 °C.

With `Nc1c(Cl)cc(C(F)(F)F)cc1Br`, the melting point is 31 °C.

In turn, `NC(=S)Nc1cccc([N+](=O)[O-])c1` gave a melting point of 189 to 190 °C.

In turn, `Cc1ccc2c(c1[N+](=O)[O-])C(=O)c1c(Cl)c(Cl)c(Cl)c(Cl)c1C2=O` gave a melting point of 262 °C.

In the case of `CCOc1ccc2c(c1)C(C)=CC(C)(C)N2`, the melting point is under -20 °C.

`Cc1c(C2(c3cc(C(C)C)c(O)c(CN(CC(=O)O)CC(=O)O)c3C)OC(=O)c3ccccc32)cc(C(C)C)c(O)c1CN(CC(=O)O)CC(=O)O` displayed a melting point of 191 °C.

In turn, `CC(O)C(c1ccccc1)c1ccccc1` (stereo not drawn) displayed a melting point of 59 to 63 °C.

Regarding `Cc1ccc(N)c(C(=O)O)c1`, the melting point lay within 174 to 177 °C.

In the case of `O=c1[nH][nH]c(=O)c2cc3c(cc12)CCC3`, the melting point stood at 310 °C.

`CN1CCOc2cc(C(=O)Cl)ccc21` showed a melting point of 96 to 100 °C.

Molecule `NC(CS(=O)(=O)c1ccccc1)=NO` showed a melting point of 162 °C.

The molecule `O=C(Nc1ccccc1[N+](=O)[O-])C(F)(F)C(F)(F)C(F)(F)C(F)(F)C(F)(F)C(F)(F)C(F)(F)C(F)(F)F` had a melting point of 94 °C.

Take `CC(=O)Nc1c(C)ccc2c1C(=O)c1ccccc1C2=O`: the melting point came out at 133 °C.

`COc1ccc(C(=S)Nc2ccccc2)cc1` registered a melting point of 157 °C.

`Cc1nn(-c2ccccc2)c(C)c1C#N` showed a melting point of 85 to 86 °C.

The molecule `c1ccc(N2CCCCC2)cc1` returned a melting point of 4.7 °C.

In the case of `Fc1c(F)c(F)c(P(c2c(F)c(F)c(F)c(F)c2F)c2c(F)c(F)c(F)c(F)c2F)c(F)c1F`, the melting point was found to be 117 °C.

In turn, `Cc1cc(N)ccc1O` gave a melting point of 176 °C.

Turning to `CC1(C)C=Cc2c(ccc3c2OC2c4ccc(O)cc4OCC32)O1` (stereo not drawn), the melting point is 178 °C.

`O=C(O)c1cccc2nsnc12` registered a melting point of 198 to 200 °C.

For `CCOC(=O)c1cc(Cl)cc(Cl)c1`, the melting point lay within 35 to 36 °C.

Turning to `O=[N+]([O-])c1cc2c(cc1C/C(=N/Nc1ccccc1)c1ccccc1)n1n(-c3ccccc3)n21`, the melting point lay within 197 to 198 °C.

In the case of `CC(=O)C(=O)Nc1ccc(Br)cc1`, the melting point was determined as 166 °C.

Take `CCOC(=O)NC(=S)Nc1sc2c(c1C(=O)OCC)CCN(Cc1ccccc1)C2`: the melting point was determined as 206 °C.

On to `O=C(O)c1cccc2cccc(Br)c12`, for which the melting point lay in the range of 169 to 171 °C.

As for `O=C1C=CC(=O)c2c(O)ccc(O)c21`, the melting point turned out to be 237 °C.

Regarding `COC(=O)c1c(C=O)ccc(OC)c1OC`, the melting point came to 83 °C.

The molecule `S=c1sc2ccccc2n1CSc1nc2ccccc2s1` yielded a melting point of 211 °C.

`C=CCSc1nc(C)n[nH]1` had a melting point of 88 to 90 °C.

As for `O=C(O)c1cccc2cc[nH]c12`, the melting point fell in the range of 202 to 204 °C.

For `CC(=O)N1CCc2cccc(N)c21`, the melting point lay within 157 to 160 °C.

In turn, `Cc1c(O)c(Br)c(Br)c(Br)c1Br` showed a melting point of 209 to 213 °C.

`C/C=C/C(=O)NNc1ccccc1` displayed a melting point of 190 °C.

Consider `CCC(O)CN` (stereo not drawn), for which the melting point is 3 °C.

As for `Nc1ccc(S(=O)(=O)O)cc1`, the melting point stood at 365 °C.

On to `Nc1cccc2c1C(=O)c1cccc(N)c1C2=O`, for which the melting point worked out at 319 °C.

For `COc1cc(F)c(C=O)cc1OC`, the melting point was 99 °C.

The molecule `COc1ccc(CC(=O)O)cc1` displayed a melting point of 87 °C.

`CC(NC(=O)COCCN1C(=O)c2ccccc2C1=O)[P+]([O-])(Oc1ccccc1)Oc1ccccc1` (stereo not drawn) yielded a melting point of 107 °C.

In turn, `OC1CCC(O)CC1` (stereo not drawn) showed a melting point of 143 °C.

For the molecule `Nc1ccncc1[N+](=O)[O-]`, the melting point turned out to be 203 °C.

`O=C(O)C=CC(=O)Nc1ccccc1` displayed a melting point of 177 °C.

`COc1ccc(OCC(O)CN)cc1` (stereo not drawn) registered a melting point of 110 to 112 °C.

`CCOC(=O)C(CSC(=O)C(C)(C)Br)NC(C)=O` (stereo not drawn): the melting point was over 20 °C.

On to `FC(F)(F)CCBr`, for which the melting point was under 25 °C.

In turn, `Cc1cc(=O)oc2cc(N)ccc12` came in with a melting point of 227 °C.

With `COc1ccc(-c2cc(NN=c3c(C(F)(F)F)nc4ccccc4[nH]c3=O)[nH]n2)cc1`, the melting point came out at 154 °C.

Consider `C[Si](C)(C)O[Si](C)(C)C`, for which the melting point is -59 °C.

For `N#CCC(N)=C(C#N)C#N`, the melting point amounted to 172 °C.

The molecule `CC1=C(C(=O)O)C(c2ccccc2)N(C)C(=O)N1C` (stereo not drawn) yielded a melting point of 165 °C.

`Cc1csc(C(N)=O)c1` returned a melting point of 115 to 117 °C.

Take `O=C(Cl)c1cc2c(Cl)cc(Cl)cc2[nH]1`: the melting point lay in the range of 173 to 175 °C.

In turn, `CCOC(=O)C(C#N)=C(S)Nc1ccccc1` showed a melting point of 118 to 119 °C.

On to `CCCCC[C@H]1CC[C@H](C(=O)O)CC1`, for which the melting point lay in the range of 52 to 56 °C.

In turn, `CC(=N[Si](C)(C)C)O[Si](C)(C)C` registered a melting point of 24 °C.

The molecule `O=CN(c1ccccc1)c1ccccc1` yielded a melting point of 73.5 °C.

Consider `CCOC(=O)c1ncoc1-c1ccccc1`, for which the melting point lay within 32 to 35 °C.

In the case of `S=c1[nH]ccn1-c1ccc(Cl)cc1`, the melting point is 223 to 226 °C.

Consider `CCC(C)CCC(C)O` (stereo not drawn), for which the melting point is -61 °C.

Take `Cc1cc(C(=O)O)c(C)n1C1CC1`: the melting point was 178 to 185 °C.

`Nc1ccc(O)c2c1C(=O)c1c(O)ccc(N)c1C2=O` had a melting point of 300 °C.

As for `CCOC(=O)c1cc2cc(C=O)c(N)cc2[nH]c1=O`, the melting point is 154 to 157 °C.

Regarding `O=C(O)c1cc2cc(Cl)cc(Br)c2oc1=O`, the melting point is 206 to 208 °C.

With `O=C(O)c1ccc([N+](=O)[O-])cc1F`, the melting point is 174 °C.

For the molecule `COC(=O)CCC(C)C1CCC2C3C(OC(C)=O)CC4CC(OC(C)=O)CCC4(C)C3CC(=O)C12C` (stereo not drawn), the melting point turned out to be 178 °C.

Turning to `Cn1nc(CCl)cc1-c1ccccc1`, the melting point was 59 to 61 °C.

With `CC(C)C12CCC(C)(CC1)O2`, the melting point worked out at 1 °C.

`O=S(=O)(O)CCN(CCO)CCO` had a melting point of 152 to 154 °C.

The molecule `Cc1nc2cc(O)ccc2s1` registered a melting point of 186 °C.

In the case of `Cc1c(-c2ccccc2)oc2c(C(=O)O)cccc2c1=O`, the melting point came to 235 °C.

`CC(CN(C)C)CN1c2ccccc2Sc2ccccc21` (stereo not drawn) came in with a melting point of 68 °C.

In turn, `CC(=O)Nc1ccc(C2=NN(c3ccccc3)C(=O)/C2=C/C2C(=O)N(c3ccccc3)N=C2c2ccc(NC(C)=O)cc2)cc1` (stereo not drawn) yielded a melting point of 317 °C.

In the case of `CN(C)P(=O)(OP(=O)(N(C)C)N(C)C)N(C)C`, the melting point stood at 17 °C.
